pIC50: −log10 of the molar value.
How the values were obtained:
human AKT2 = human AKT2 (Homo sapiens (Human), UniProt P31751); test: AKT2 kinase activity inhibition (TR-FRET, biotinylated Crosstide substrate); assay type: biochemical; details: preincubation 120 min at 25° C.; ATP 150 μM; Crosstide 500 nM
Description: (§1) Preparation of AKT1 and AKT2 and measurement of in vitro inhibitory activity of the above-mentioned compounds against AKT1 and AKT2 kinase activity were carried out with reference to the method disclosed in Biochem. J. Vol. 385, pp 399-408 (2005). In the preparation of AKT1 and AKT2, human AKT1 and AKT2 to which a middle T antigen tag was added were expressed in Sf 9 insect cells, and then AKT1 and AKT2 were prepared following affinity purification and activation by PDK1. The prepared AKT1 and AKT2 were stored at −80° C. until the time of measurement of inhibitory activity of the compounds. In the measurement of inhibitory activity of the compounds, AKT1 or AKT2 and each compound of the present invention were preincubated at 25° C. for 120 minutes in a buffer solution for reaction (15 mM Tris-HCl pH 7.5, 0.01% Tween-20, 2 mM DTT). As a substrate, biotinylated Crosstide (bioton-KGSGSGRPRTSSFAEG), MgCl2, and ATP were added to final concentrations of 500 nM, 10 mM, and 150 μM, respectively, and reactions were carried out at 25° C. for 60 minutes. The reactions were stopped by adding EDTA to a final concentration of 80 mM. Then, a detection liquid in which an Eu-labeled anti-phosphorylation Crosstide antibody (PerkinElmer) and SureLight APC-SA (PerkinElmer) were contained at a final concentration of 0.5 nM and […], respectively, was added, and reactions were carried out at room temperature for 2 hours. Finally, the amount of fluorescence at the time of irradiation of excitation light having a wavelength of 337 nm was measured at dual wavelengths of 620 nm and 665 nm by PHERAstar FS (BMG LABTECH). The amount of phosphorylation was determined from the ratio of the fluorescence amounts at the dual wavelengths. The compound concentration at which phosphorylation can be inhibited by 50% was defined as […] (nM), and the results are shown in Table 4 below.

human AKT1 = human AKT1 (Homo sapiens (Human), UniProt P31749); test: AKT1 kinase activity inhibition (TR-FRET, biotinylated Crosstide substrate); assay type: biochemical; details: preincubation 120 min at 25° C.; ATP 150 μM; Crosstide 500 nM
human AKT1, sequence (P31749 whole entry): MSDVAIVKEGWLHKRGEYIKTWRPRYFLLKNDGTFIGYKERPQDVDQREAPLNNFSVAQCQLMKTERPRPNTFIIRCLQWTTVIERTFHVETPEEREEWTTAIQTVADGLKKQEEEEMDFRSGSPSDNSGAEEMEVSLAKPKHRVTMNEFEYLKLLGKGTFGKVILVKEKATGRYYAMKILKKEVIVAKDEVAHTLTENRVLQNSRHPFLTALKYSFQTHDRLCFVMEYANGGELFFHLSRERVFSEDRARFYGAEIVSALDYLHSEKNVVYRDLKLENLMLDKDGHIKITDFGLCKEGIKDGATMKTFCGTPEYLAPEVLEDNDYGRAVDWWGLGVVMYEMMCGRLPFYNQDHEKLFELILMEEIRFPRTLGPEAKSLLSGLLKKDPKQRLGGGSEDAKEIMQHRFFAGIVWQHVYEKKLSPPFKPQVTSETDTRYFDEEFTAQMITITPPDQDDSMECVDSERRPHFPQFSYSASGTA
Description: as §1

human AKT2, sequence (P31751 whole entry): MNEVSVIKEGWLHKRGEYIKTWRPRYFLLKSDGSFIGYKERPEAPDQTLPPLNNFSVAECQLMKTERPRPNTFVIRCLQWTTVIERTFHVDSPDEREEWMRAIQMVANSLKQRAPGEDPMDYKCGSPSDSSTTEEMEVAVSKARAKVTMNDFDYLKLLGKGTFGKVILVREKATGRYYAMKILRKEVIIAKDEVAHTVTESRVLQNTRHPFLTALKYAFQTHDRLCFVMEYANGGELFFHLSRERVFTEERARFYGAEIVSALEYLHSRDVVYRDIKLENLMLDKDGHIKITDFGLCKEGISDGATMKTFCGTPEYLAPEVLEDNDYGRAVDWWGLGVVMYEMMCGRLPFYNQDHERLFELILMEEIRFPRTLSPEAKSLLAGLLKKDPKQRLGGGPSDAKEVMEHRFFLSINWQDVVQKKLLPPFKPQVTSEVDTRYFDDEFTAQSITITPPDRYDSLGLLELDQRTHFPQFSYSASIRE

Row | SMILES | pIC50 (human AKT2) | pIC50 (human AKT1)
1 | CC1(O)CC(N)(c2ccc(-c3nc4n(c3-c3ccccc3)COc3cccc(F)c3-4)cc2)C1 (stereo not drawn) [Example 2, trans-3-amino-3-(4-(10-fluoro-3-phenyl-5H-benzo[e]imidazo[1,2-c][1,3]oxazin-2-yl)phenyl)-1-methylcyclobutanol] | 9.30 | 8.34
2 | NC1(c2ccc(-c3nc4n(c3-c3ccccc3)COc3cccc(F)c3-4)cc2)CCC1 [Example 3, 1-(4-(10-fluoro-3-phenyl-5H-benzo[e]imidazo[1,2-c][1, 3]oxazin-2-yl)phenyl)cyclobutanamine] | 8.92 | 7.80
3 | NC1(c2ccc(-c3nc4n(c3-c3ccsc3)COc3cccc(F)c3-4)cc2)CC(O)(C2CC2)C1 (stereo not drawn) [Example 4, trans-3-amino-1-cyclopropyl-3-(4-(10-fluoro-3-(thiophen-3-yl)-5H-benzo[e]imidazo[1,2-c][1,3]oxazin-2-yl)phenyl)cyclobutanol] | 9.15 | 8.15
4 | CC1(O)CC(N)(c2ccc(-c3nc4n(c3-c3ccsc3)COc3cccc(F)c3-4)cc2)C1 (stereo not drawn) [Example 6, trans-3-amino-3-(4-(10-fluoro-3-(thiophen-3-yl)-5H-benzo[e]imidazo[1,2-c][1,3]oxazin-2-yl)phenyl)-1-methylcyclobutanol] | 9.04 | 8.01
5 | CC1(O)CC(N)(c2ccc(-c3nc4n(c3-c3ccncc3)COc3cccc(F)c3-4)cc2)C1 (stereo not drawn) [Example 7, trans-3-amino-3-(4-(10-fluoro-3-(pyridin-4-yl)-5H-benzo[e]imidazo[1,2-c][1,3]oxazin-2-yl)phenyl)-1-methylcyclobutanol] | 8.96 | 7.60
6 | CC1(O)CC(N)(c2ccc(-c3nc4n(c3-c3ccccc3)COc3ccc(F)cc3-4)cc2)C1 (stereo not drawn) [Example 8, trans-3-amino-3-(4-(9-fluoro-3-phenyl-5H-benzo[e]imidazo[1,2-c][1,3]oxazin-2-yl)phenyl)-1-methylcyclobutanol] | 9.00 | 8.19
7 | C[C@]1(O)C[C@@](N)(c2ccc(-c3nc4n(c3-c3ccccc3)COc3cc(F)ccc3-4)cc2)C1 [Example 9, trans-3-amino-3-(4-(8-fluoro-3-phenyl-5H-benzo[e]imidazo[1,2-c][1,3]oxazin-2-yl)phenyl)-1-methylcyclobutanol] | 8.70 | 8.07
8 | NC1(c2ccc(-c3nc4n(c3-c3ccccc3)COc3c(F)cccc3-4)cc2)CC(O)(C2CC2)C1 (stereo not drawn) [Example 10, trans-3-amino-1-cyclopropyl-3-(4-(7-fluoro-3-phenyl-5H-benzo[e]imidazo[1,2-c][1,3]oxazin-2-yl)phenyl)cyclobutanol] | 8.85 | 8.64
9 | C[C@]1(O)C[C@@](N)(c2ccc(-c3nc4n(c3-c3ccccc3)COc3ccccc3-4)cc2)C1 [Example 12, trans-3-amino-1-methyl-3-(4-(3-phenyl-5H-benzo[e]imidazo[1,2-c][1,3]oxazin-2-yl)phenyl)cyclobutanol] | 8.77 | 8.28
10 | NC1(c2ccc(-c3nc4n(c3-c3ccccc3)COc3ccccc3-4)cc2)CCC1 [Example 13, 1-(4-(3-phenyl-5H-benzo[e]imidazo[1,2-c][1,3]oxazin-2-yl)phenyl)cyclobutanamine] | 8.55 | 7.89
11 | NC1(c2ccc(-c3nc4n(c3-c3ccsc3)COc3ccccc3-4)cc2)CCC1 [Example 14, 1-(4-(3-(thiophen-3-yl)-5H-benzo[e]imidazo[1,2-c][1,3]oxazin-2-yl)phenyl)cyclobutanamine] | 8.27 | 7.57
12 | NC1(c2ccc(-c3nc4n(c3-c3ccncc3)COc3ccccc3-4)cc2)CCC1 [Example 15, 1-(4-(3-(pyridin-4-yl)-5H-benzo[e]imidazo[1,2-c][1,3]oxazin-2-yl)phenyl)cyclobutanamine] | 8.19 | 7.29
13 | COc1cccc2c1OCn1c-2nc(-c2ccc([C@]3(N)C[C@@](O)(C4CC4)C3)cc2)c1-c1ccccc1 [Example 19, trans-3-amino-1-cyclopropyl-3-(4-(7-methoxy-3-phenyl-5H-benzo[e]imidazo[1,2-c][1,3]oxazin-2-yl)phenyl)cyclobutanol] | 8.70 | 7.80
14 | COc1ccc2c(c1)-c1nc(-c3ccc(C4(N)CC(C)(O)C4)cc3)c(-c3ccccc3)n1CO2 (stereo not drawn) [Example 20, trans-3-amino-3-(4-(9-methoxy-3-phenyl-5H-benzo[e]imidazo[1,2-c][1,3]oxazin-2-yl)phenyl)-1-methylcyclobutanol] | 9.12 | 8.54
15 | COc1ccc2c(c1)OCn1c-2nc(-c2ccc(C3(N)CC(C)(O)C3)cc2)c1-c1ccccc1 (stereo not drawn) [Example 21, trans-3-amino-3-(4-(8-methoxy-3-phenyl-5H-benzo[e]imidazo[1,2-c][1,3]oxazin-2-yl)phenyl)-1-methylcyclobutanol] | 9.04 | 8.22
16 | NC1(c2ccc(-c3nc4n(c3-c3ccccc3)COc3cccc(Cl)c3-4)cc2)CC(O)(C2CC2)C1 (stereo not drawn) [Example 22, trans-3-amino-3-(4-(10-chloro-3-phenyl-5H-benzo[e]imidazo[1,2-c][1,3]oxazin-2-yl)phenyl)-1-cyclopropylcyclobutanol] | 9.52 | 8.09
17 | CCOc1cccc2c1-c1nc(-c3ccc(C4(N)CC(O)(C5CC5)C4)cc3)c(-c3ccccc3)n1CO2 (stereo not drawn) [Example 23, trans-3-amino-1-cyclopropyl-3-(4-(10-ethoxy-3-phenyl-5H-benzo[e]imidazo[1,2-c][1,3]oxazin-2-yl)phenyl)cyclobutanol] | 8.77 | 7.55
18 | CCOc1cccc2c1-c1nc(-c3ccc(C4(N)CC(C)(O)C4)cc3)c(-c3ccccc3)n1CO2 (stereo not drawn) [Example 24, trans-3-amino-3-(4-(10-ethoxy-3-phenyl-5H-benzo[e]imidazo[1,2-c][1,3]oxazin-2-yl)phenyl)-1-methylcyclobutanol] | 8.74 | 7.52
19 | COc1cc(OC)c2c(c1)OCn1c-2nc(-c2ccc(C3(N)CC(O)(C4CC4)C3)cc2)c1-c1ccccc1 (stereo not drawn) [Example 25, trans-3-amino-1-cyclopropyl-3-(4-(8,10-dimethoxy-3-phenyl-5H-benzo[e]imidazo[1,2-c][1,3]oxazin-2-yl)phenyl)cyclobutanol] | 9.57 | 7.92
20 | Cc1cccc2c1OCn1c-2nc(-c2ccc([C@]3(N)C[C@@](O)(C4CC4)C3)cc2)c1-c1ccccc1 [Example 26, trans-3-amino-1-cyclopropyl-3-(4-(7-methyl-3-phenyl-5H-benzo[e]imidazo[1,2-c][1,3]oxazin-2-yl)phenyl)cyclobutanol] | 8.82 | 7.59
21 | NC1(c2ccc(-c3nc4n(c3-c3ccccc3)COc3cccnc3-4)cc2)CCC1 [Example 29, 1-(4-(3-phenyl-5H-imidazo[1,2-c]pyrido[2,3-e][1,3]oxazin-2-yl)phenyl)cyclobutanamine] | 8.40 | 7.46
22 | NC1(c2ccc(-c3nc4n(c3-c3ccccc3)COc3ccncc3-4)cc2)CCC1 [Example 33, 1-(4-(3-phenyl-5H-imidazo[1,2-c]pyrido[3,4-e][1,3]oxazin-2-yl)phenyl)cyclobutanamine] | 8.77 | 7.85
23 | CC[C@]1(O)C[C@@](N)(c2ccc(-c3nc4n(c3-c3ccccc3)COc3ccncc3-4)cc2)C1 [Example 34, trans-3-amino-1-ethyl-3-(4-(3-phenyl-5H-imidazo[1,2-c]pyrido[3,4-e][1,3]oxazin-2-yl)phenyl)cyclobutanol] | 8.68 | 7.92
24 | NC1(c2ccc(-c3nc4n(c3-c3ccccc3)COc3cnccc3-4)cc2)CCC1 [Example 37, 1-(4-(3-phenyl-5H-imidazo[1,2-c]pyrido[4,3-e][1,3]oxazin-2-yl)phenyl)cyclobutanamine] | 8.96 | 8.26
25 | CC1(O)CC(N)(c2ccc(-c3nc4n(c3-c3ccccc3)COc3ncccc3-4)cc2)C1 (stereo not drawn) [Example 39, trans-3-amino-1-methyl-3-(4-(3-phenyl-5H-imidazo[1,2-c]pyrido[3,2-e][1,3]oxazin-2-yl)phenyl)cyclobutanol] | 9.01 | 8.85
26 | NC1(c2ccc(-c3nc4n(c3-c3ccccc3)COc3ncccc3-4)cc2)CCC1 [Example 40, 1-(4-(3-phenyl-5H-imidazo[1,2-c]pyrido[3,2-e][1,3]oxazin-2-yl)phenyl)cyclobutanamine] | 8.80 | 8.41
27 | CCC1(O)CC(N)(c2ccc(-c3nc4n(c3-c3ccccc3)COc3nccnc3-4)cc2)C1 (stereo not drawn) [Example 43, trans-3-amino-1-ethyl-3-(4-(3-phenyl-5H-imidazo[1,2-c]pyrazino[2,3-e][1,3]oxazin-2-yl)phenyl)cyclobutanol] | 8.15 | 8.10
